Experiments:
SHV-5 β-lactamase = target: T1, SHV-5 β-lactamase (Klebsiella pneumoniae, UniProt P0A3M1); assay: β-lactamase enzyme inhibition, SHV-5; format: biochemical
T1 construct: made in house; host or cells: E. coli BL21(DE3)
Protocol: (§1) For SHV-5, Kpc-2, p99AmpC and OXA-1 β-lactamases, E. coli BL21(DE3) bacterial cells carrying expression plasmids (expressed as native untagged proteins) for the individual β-lactamases were grown in 1 L of Superbroth (Teknova Inc. Hollister, Calif.) supplemented with 100 μg/ml kanamycin selection and 1×5052 (0.5% glycerol, 0.05% glucose and 0.2% α-lactose) at 35° C. for 18-20 hours. Cells were harvested by centrifugation (4,000×g, 4° C., 20 min), resuspended in 50 ml of 10 mM HEPES pH 7.5 ( 1/20 of the initial volume). The cells were lysed by sonication (5 pulses of 45 seconds) at 45 W on ice. The lysates were clarified by centrifugation at 10,000×g for 40 minutes at 4° C. Samples were diluted 5-fold in 50 mM sodium acetate pH 5.0, stored overnight at 4° C., after which they were centrifuged at 10,000×g for 30 minutes to clarify, and filtered through 0.45 μm filters. The samples were loaded onto a 5 ml Capto S sepharose cation exchange column (GE Healthcare) pre-equilibrated with 50 mM sodium acetate pH 5.0. The column was washed with 5 column volumes of 50 mM sodium acetate pH 5.0 to wash out unbound protein and a linear gradient of NaCl (0 to 500 mM) was used to elute the protein (over 16 CV) from the column. Fractions were assayed for […] activity using Centa (Calbiochem, Gibbstown, N.J.) or Nitrocefin (EMD Millipore chemicals, Darmstadt, Germany) as a reporter β-lactamase substrate for activity in the isolated fractions. Active fractions were pooled, concentrated and further purified by gel filtration chromatography on a Superdex 75 prep grade gel filtration column (GE Healthcare, Piscataway, N.J.) pre-equilibrated in 50 mM Hepes pH 7.5, 150 mM NaCl. Active fractions were pooled, concentrated, and quantitated by BCA protein determination (Thermo Scientific, Rockford, Ill.), dialyzed into PBS and frozen at −80° C. in 20% glycerol until use.
(§2) An equal volume of diluted enzyme stock was added, and the plates were incubated at 37° C. for 15 min. Nitrocefin was used as substrate for p99 AmpC, VIM-2 and OXA-1 and dispensed into each well at a final concentration of 100 μM. Absorbance at 486 nm was immediately monitored for 10 min using a Biotek Powerwave XS2 microplate spectrophotometer using the GEN5 software package (Biotek Instruments, Winooski Vt.). In an analogous fashion, imipenem was used as substrate for KPC-2 and Cefotaxime was used for SHV-5, while changes in absorbance upon hydrolysis of the β-lactam ring were monitored at 300 nm and 260 nm respectively in UV-transparent 96-well microtiter assay plates. Maximum rates of hydrolysis were compared to those in control wells (without inhibitors), and percentages of enzyme inhibition were calculated for each concentration of inhibitor. The concentration of inhibitor needed to reduce the initial rate of hydrolysis of substrate by 50% (IC50) was calculated as the residual activity of β-lactamase at 486 nm using GraFit version 7 kinetics software package (Erithacus Software, Surrey, UK).
(§3) Using the methodology described above, examples of the current invention were evaluated for their ability to inhibit β-lactamase enzymes from all four Ambler classifications (A through D). […] NT=Not tested.

KPC-2 β-lactamase = target: T2, KPC-2 β-lactamase (Klebsiella pneumoniae, UniProt Q9F663); assay: β-lactamase enzyme inhibition, KPC-2; format: biochemical; conditions: imipenem substrate, 300 nm; 15 min at 37° C. preincubation; read-out: IC50 KPC-2 (Class A)
T2 construct: made in house; host or cells: E. coli BL21(DE3)
Protocol: as §1, §2, §3

[1] = target: T3, VIM-2 metallo β-lactamase (Pseudomonas aeruginosa, UniProt Q9K2N0); assay: β-lactamase enzyme inhibition, VIM-2; format: biochemical; conditions: Nitrocefin 100 μM, 486 nm; 15 min at 37° C. preincubation; read-out: IC50 VIM-2 (Class B)
T3 construct: made in house; host or cells: E. coli BL21(DE3)
Protocol: For VIM-2 metallo β-lactamase, the procedure was identical with the following exceptions, first the protein was not pH adjusted to pH 5 with 50 mM sodium acetate. Second, the chromatography step was changed to a 5 ml Q sepharose anion exchange column pre-equilibrated with 50 mM Hepes pH 7.5, and elution of the protein was achieved by a linear gradient of NaCl (0-600 mM). Finally, the VIM-2 purification required a second run (3rd step) on the Q sepharose anion exchange column to achieve acceptable purity (>90%).
as §2, §3

p99 AmpC β-lactamase = target: T4, p99 AmpC β-lactamase (Enterobacter cloacae, UniProt P05364); assay: β-lactamase enzyme inhibition, p99 AmpC; format: biochemical
T4 construct: made in house; host or cells: E. coli BL21(DE3)
Protocol: as §1, §2
Using the methodology described above, examples of the current invention were evaluated for their ability to inhibit β-lactamase enzymes from all four Ambler classifications (A through D).

OXA-1 β-lactamase = target: T5, OXA-1 β-lactamase (Escherichia coli, UniProt P13661); assay: β-lactamase enzyme inhibition, OXA-1; format: biochemical; conditions: Nitrocefin 100 μM, 486 nm; 15 min at 37° C. preincubation; read-out: IC50 OXA-1 (Class D)
T5 construct: made in house; host or cells: E. coli BL21(DE3)
Protocol: as §1, §2, §3

[2] = system: E. coli ESBL4 expressing CTX-M-15; assay: broth microdilution MIC, E. coli CTX-M-15; format: cell-based; conditions: Fixed CAZ (ceftazidime) 4 μg/mL
Excerpt: (§4) To determine the ability of test compounds to potentiate the inhibition of the growth of bacterial strains that produce beta-lactamase enzymes, classic cell based broth microdilution MIC assays were employed. Six bacteria strains producing beta-lactamase enzymes were used: E. coli expressing the Class A Extended Spectrum Beta-Lactamase (ESBL) CTX-M-15, E. cloacae expressing the Class C P99, K. pneumoniae expressing the Class A carbapenemase KPC-3, P. aeruginosa expressing the Class B carbapenemase VIM-2, K pneumoniae expressing the class A carbapenemase KPC-2 and the class B carbapenemase VIM-4, and S. aureus producing the Class A penicillinase PC-1. The assay was conducted in Cation Adjusted Mueller Hinton Broth (CAMHB, BD #212322, BD Diagnostic Systems, Sparks, Md.). Bacteria strains were grown for 3-5 hours in CAMBH broth. Test compounds were added to a microtiter plate in 2-fold serial dilutions in CAMHB in a final concentration range of 32 μg/mL to 0.25 μg/ml. An overlay of CAMHB containing a Beta-lactam was added to the compounds at a final static concentration of 4 μg/ml. […] In addition to the titration of test compounds the MICs of a panel of control beta-lactams is also tested to ensure the strains are behaving consistently from test to test. Once the test compound and antibiotics are added the plates can be inoculated according to CLSI broth microdilution method. After inoculation the plates are incubated for 16-20 hours at 37° C., then the Minimal Inhibitory Concentration (MIC) of the test compound is determined visually.
(§5) Using the methodology described above, examples of the current invention were evaluated for their ability to inhibit the growth of β-lactamase-producing bacteria in the presence of a β-lactam antibiotic.
(§6) Representative results are shown in Table 4 where A represents an MIC of the fixed β-lactam antibiotic in the presence of >32 µg/mL of a β-lactamase inhibitor of exemplary compounds, B represents the MIC in the presence of between 8 and 32 µg/mL of a β-lactamase inhibitor of exemplary compounds, and C represents the MIC in the presence of ≤4 µg/mL of a β-lactamase inhibitor of exemplary compounds. NT=Not Tested.

[3] = system: E. cloacae 144200 expressing Class C P99 AmpC; assay: broth microdilution MIC, E. cloacae P99; format: cell-based; conditions: Fixed CAZ (ceftazidime) 4 μg/mL
Excerpt: as §4, §5, §6

[4] = system: K. pneumoniae 156319 expressing KPC-3; assay: broth microdilution MIC, K. pneumoniae KPC-3; format: cell-based; conditions: Fixed Mero (meropenem) 4 μg/mL
Excerpt: as §4, §5, §6

[5] = system: K. pneumoniae A-1797 expressing KPC-2 and VIM-4; assay: broth microdilution MIC, K. pneumoniae KPC-2 and VIM-4; format: cell-based; conditions: Fixed Mero (meropenem) 4 μg/mL
Excerpt: as §4, §5, §6

T4 sequence (P05364 21-381): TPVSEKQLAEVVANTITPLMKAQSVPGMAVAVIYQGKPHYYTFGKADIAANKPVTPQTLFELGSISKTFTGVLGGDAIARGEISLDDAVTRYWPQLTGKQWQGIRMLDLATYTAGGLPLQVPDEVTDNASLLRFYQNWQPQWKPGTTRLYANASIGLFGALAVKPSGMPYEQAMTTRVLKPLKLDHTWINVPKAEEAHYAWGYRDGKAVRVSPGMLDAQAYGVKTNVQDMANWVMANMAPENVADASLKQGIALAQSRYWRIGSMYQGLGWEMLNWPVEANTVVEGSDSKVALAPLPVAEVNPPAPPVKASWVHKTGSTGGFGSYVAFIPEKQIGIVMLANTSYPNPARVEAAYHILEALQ
T1 sequence (P0A3M1 22-286): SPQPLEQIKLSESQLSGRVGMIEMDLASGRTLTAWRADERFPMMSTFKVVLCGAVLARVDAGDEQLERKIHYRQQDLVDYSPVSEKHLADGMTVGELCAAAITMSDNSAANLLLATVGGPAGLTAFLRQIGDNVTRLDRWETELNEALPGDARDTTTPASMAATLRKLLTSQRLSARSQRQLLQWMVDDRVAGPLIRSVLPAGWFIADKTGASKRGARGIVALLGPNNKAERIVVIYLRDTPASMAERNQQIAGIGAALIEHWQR
T2 sequence (Q9F663 25-293, looked up): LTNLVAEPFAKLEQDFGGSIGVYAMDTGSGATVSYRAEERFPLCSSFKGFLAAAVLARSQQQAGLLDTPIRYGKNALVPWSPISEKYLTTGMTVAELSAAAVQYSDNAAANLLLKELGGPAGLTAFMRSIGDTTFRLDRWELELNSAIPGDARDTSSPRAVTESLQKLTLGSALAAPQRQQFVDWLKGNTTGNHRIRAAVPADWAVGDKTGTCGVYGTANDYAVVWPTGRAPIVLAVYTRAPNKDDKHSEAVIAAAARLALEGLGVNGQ
T5 sequence (P13661 26-276): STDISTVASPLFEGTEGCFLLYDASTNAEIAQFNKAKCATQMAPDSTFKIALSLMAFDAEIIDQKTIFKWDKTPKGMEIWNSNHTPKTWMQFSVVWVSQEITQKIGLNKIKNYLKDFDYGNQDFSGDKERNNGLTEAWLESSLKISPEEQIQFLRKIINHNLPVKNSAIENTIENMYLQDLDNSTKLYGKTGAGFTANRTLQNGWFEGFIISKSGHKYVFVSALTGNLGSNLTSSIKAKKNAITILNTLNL

Row | SMILES | IC50 (SHV-5 β-lactamase) [nM] | IC50 (KPC-2 β-lactamase) [nM] | IC50 [1] [nM] | IC50 (p99 AmpC β-lactamase) [nM] | IC50 (OXA-1 β-lactamase) [nM] | MIC of exemplary compounds in presence of fixed β-lactams, E. coli ESBL4 CTX-M-15 [2] | MIC of exemplary compounds in presence of fixed β-lactams, E. cl. 144200 p99 AmpC [3] | MIC of exemplary compounds in presence of fixed β-lactams, K.P. 156319 KPC-3 [4] | MIC of exemplary compounds in presence of fixed β-lactams, K.P. A-1797 KPC-2 VIM-4 [5]
1 | CC(C)(C#N)CC(=O)N[C@H]1Cc2cccc(C(=O)O)c2OB1O [Example 43, (R)-3-(3-Cyano-3,3-dimethyl-propionylamino)-2-hydroxy-3,4-dihydro-2H-benzo[e][1,2]oxaborinine-8-carboxylic acid] | 100 to 1000 | < 100 | 100 to 1000 | 100 to 1000 | < 100 | C (C represents the MIC in the presence of ≤4 g/mL of a β-lactamase inhibitor) | C (C represents the MIC in the presence of ≤4 g/mL of a β-lactamase inhibitor) | C (C represents the MIC in the presence of ≤4 g/mL of a β-lactamase inhibitor) | B (B represents the MIC in the presence of between 8 and 32 g/mL of a β-lactamase inhibitor)
2 | CC(=O)CCC(=O)N[C@H]1Cc2cc(F)c(F)c(C(=O)O)c2OB1O [Example 50, (R)-6,7-Difluoro-2-hydroxy-3-(4-oxo-pentanoylamino)-3,4-dihydro-2H-benzo[e][1,2]oxaborinine-8-carboxylic acid] | < 100 | < 100 | 100 to 1000 | 100 to 1000 | < 100 | C (C represents the MIC in the presence of ≤4 g/mL of a β-lactamase inhibitor) | C (C represents the MIC in the presence of ≤4 g/mL of a β-lactamase inhibitor) | B (B represents the MIC in the presence of between 8 and 32 g/mL of a β-lactamase inhibitor) | B (B represents the MIC in the presence of between 8 and 32 g/mL of a β-lactamase inhibitor)
3 | O=C(CNC(=O)c1ccccc1)N[C@H]1Cc2cccc(C(=O)O)c2OB1O [Example 60, (R)-3-(2-Benzoylamino-acetylamino)-2-hydroxy-3,4-dihydro-2H-benzo[e][1,2]oxaborinine-8-carboxylic acid] | < 100 | < 100 | 10000 to 100000 | < 100 |  | C (C represents the MIC in the presence of ≤4 g/mL of a β-lactamase inhibitor) | C (C represents the MIC in the presence of ≤4 g/mL of a β-lactamase inhibitor) | B (B represents the MIC in the presence of between 8 and 32 g/mL of a β-lactamase inhibitor) | B (B represents the MIC in the presence of between 8 and 32 g/mL of a β-lactamase inhibitor)
4 | NS(=O)(=O)CCCC(=O)N[C@H]1Cc2cccc(C(=O)O)c2OB1O [Example 53, (R)-2-Hydroxy-3-(4-sulfamoyl-butyrylamino)-3,4-dihydro-2H-benzo[e][1,2]oxaborinine-8-carboxylic acid] | < 100 | < 100 | 10000 to 100000 | < 100 |  | C (C represents the MIC in the presence of ≤4 g/mL of a β-lactamase inhibitor) | C (C represents the MIC in the presence of ≤4 g/mL of a β-lactamase inhibitor) | C (C represents the MIC in the presence of ≤4 g/mL of a β-lactamase inhibitor) | B (B represents the MIC in the presence of between 8 and 32 g/mL of a β-lactamase inhibitor)
5 | CNS(=O)(=O)CCC(=O)N[C@H]1Cc2cccc(C(=O)O)c2OB1O [Example 54, (R)-2-Hydroxy-3-(3-methylsulfamoyl-propionylamino)-3,4-dihydro-2H-benzo[e][1,2]oxaborinine-8-carboxylic acid] | < 100 | < 100 | 1000 to 10000 | < 100 |  | C (C represents the MIC in the presence of ≤4 g/mL of a β-lactamase inhibitor) | C (C represents the MIC in the presence of ≤4 g/mL of a β-lactamase inhibitor) | C (C represents the MIC in the presence of ≤4 g/mL of a β-lactamase inhibitor) | B (B represents the MIC in the presence of between 8 and 32 g/mL of a β-lactamase inhibitor)
6 | CN(C)S(=O)(=O)CCC(=O)N[C@H]1Cc2cccc(C(=O)O)c2OB1O [Example 55, (R)-3-(3-Dimethylsulfamoyl-propionylamino)-2-hydroxy-3,4-dihydro-2H-benzo[e][1,2]oxaborinine-8-carboxylic acid] | < 100 | < 100 | 1000 to 10000 | < 100 |  | C (C represents the MIC in the presence of ≤4 g/mL of a β-lactamase inhibitor) | C (C represents the MIC in the presence of ≤4 g/mL of a β-lactamase inhibitor) | C (C represents the MIC in the presence of ≤4 g/mL of a β-lactamase inhibitor) | B (B represents the MIC in the presence of between 8 and 32 g/mL of a β-lactamase inhibitor)
